We go through six molecules from PMC6264418, “t-Bu2SiF-Derivatized D2-Receptor Ligands: The First SiFA-Containing Small Molecule Radiotracers for Target-Specific PET-Imaging” (Molecules, 2011).

The target in assay [1] is T1, human D2 receptor (Homo sapiens, UniProt P14416).
T1 construct: expressed in transfected cells
Nature of the assay: [3H]spiperone binding assay, dopamine D2-receptor affinity (HEK293 cells stably expressing D2 receptors). How it is done:
Source of the dopamine-D2-receptors was cell line HEK293 which expresses the D2 receptors stably. […] All substances were evaluated in 3 independent competition experiments in six concentrations (each in triplicate). The Ki-values were calculated from the IC50-values according to Cheng-Prusoff as described in detail in [23].

Assay [2] addresses T1, human D2 receptor. On the set-up: method as in PMID 12570798. The conditions noted are these: D2-receptor antagonists, literature affinity; cited from earlier work.
The mark [3] stands for this setting: ratio of Ki values at the D2 receptor.

Like-named read-outs stand apart in the source and are kept apart here.

T1 sequence (P14416 whole entry): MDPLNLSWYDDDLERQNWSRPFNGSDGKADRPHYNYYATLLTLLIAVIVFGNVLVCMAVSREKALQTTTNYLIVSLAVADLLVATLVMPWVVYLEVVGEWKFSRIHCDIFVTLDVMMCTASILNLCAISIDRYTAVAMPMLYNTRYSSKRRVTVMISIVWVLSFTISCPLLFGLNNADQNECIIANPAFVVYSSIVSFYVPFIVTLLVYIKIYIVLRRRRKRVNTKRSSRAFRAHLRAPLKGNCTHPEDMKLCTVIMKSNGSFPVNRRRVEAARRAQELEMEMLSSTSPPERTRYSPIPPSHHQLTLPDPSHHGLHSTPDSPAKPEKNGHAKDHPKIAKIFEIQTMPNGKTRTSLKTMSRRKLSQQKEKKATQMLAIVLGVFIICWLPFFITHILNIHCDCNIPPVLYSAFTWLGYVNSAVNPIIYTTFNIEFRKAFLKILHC

As for `C=CCN1CCC[C@H]1CNC(=O)c1cc([Si](F)(C(C)(C)C)C(C)(C)C)cc(OC)c1OC` [SiFA-FP, 4b, (S)-N-((1-Allylpyrrolidine-2-yl)methyl)-5-(di-tert-butylfluorosilyl)-2,3-dimethoxybenzamide], the affinity on human D2 receptor [1] corresponds to a Ki of 33 ± 7.6 nM. Further, on human D2 receptor [1] (setting [3]), the “factor by which affinity is reduced compared to fallypride (1)” value is listed as 342.
As to `CCN1CCC[C@H]1CNC(=O)c1c(O)c(Cl)cc(Cl)c1OC` [Raclopride, raclopride], the D2-receptor affinity range result at human D2 receptor [2] was “nanomolar”.
As for `C=CCN1CCC[C@H]1CNC(=O)c1cc(CCCF)cc(OC)c1OC` [Fallypride, fallypride, reference compound], the D2-receptor affinity range entry on human D2 receptor [2] is reported as “picomolar”. Moreover, the Ki at human D2 receptor [1] (D2-receptor affinity, [3H]spiperone competition, 3 independent experiments, Ki from IC50 by Cheng-Prusoff, read-out: Ki (nM ± SEM)) amounted to 0.0965 ± 0.0153 nM.
Turning to `C=CCN1CCCC1CNC(=O)c1cc(CCCS[C@H]2CC(=O)N(c3ccc([Si](F)(C(C)(C)C)C(C)(C)C)cc3)C2=O)cc(OC)c1OC` (stereo partly drawn) [SiFA-M-FP, 5, (S)-N-((1-Allylpyrrolidin-2-yl)methyl)-5-(3-(1-(4-(di-tert-butylfluorosilyl)phenyl)-2,5-dioxopyrrolidin-3-ylthio)propyl)-2,3-dimethoxybenzamide], the Ki on human D2 receptor [1] worked out at 4.21 ± 0.41 nM. Moreover, at human D2 receptor [1] (setting [3]), the “factor by which affinity is reduced compared to fallypride (1)” value worked out at 44 and the “factor by which affinity is reduced compared to raclopride” value is reported as 3.5.
Regarding `C=CCN1CCC[C@H]1CNC(=O)c1cc([Si](F)(C(C)(C)C)C(C)(C)C)ccc1OC` [SiFA-DMFP, 4a, (S)-N-((1-Allylpyrrolidine-2-yl)methyl)-5-(di-tert-butylfluorosilyl)-2-methoxybenzamide], on human D2 receptor [1], the Ki was determined as 13.6 ± 4.3 nM. In addition, at human D2 receptor [1] (setting [3]), the “factor by which affinity is reduced compared to desmethoxyfallypride (2)” value came to 22 and the “factor by which affinity is reduced compared to raclopride” value worked out at 11.
For `C=CCN1CCC[C@H]1CNC(=O)c1ccc([Si](F)(C(C)(C)C)C(C)(C)C)cc1` [SiFA-DDMFP, 4c, (S)-N-((1-Allylpyrrolidine-2-yl)methyl)-4-(di-tert-butylfluorosilyl) benzamide], affinity on human D2 receptor [1] was put at a Ki of 62.7 ± 16.9 nM.

The term Ki denotes the equilibrium dissociation constant of an inhibitor or competing ligand from its target.
